Results: patent publication US20230285606A1, “METHODS AND AGENTS FOR THE DETECTION AND TREATMENT OF CANCER” (CASE WESTERN RESERVE UNIVERSITY, priority 2020, published 2023)
No end group written: not given here.

Key:
[1] = test system: heterotopic xenograft flank U87 tumor implants; assay: In vivo fluorescence imaging of heterotopic xenograft U87 flank tumors; settings: mice with U87 flank tumors; fluorophore-conjugated peptide injected via tail vein; FIG. 1/FIG. 2
Experimental: (§1) The human U87-MG and LN-229 glioma cell line was purchased from American Type Culture Collection (Manassas, Va., USA) and cultured. NIH athymic nude mice (5-8 weeks and 20-25 g on arrival; NCI-NIH) were maintained at the Athymic Animal Core Facility at Case Western Reserve University according to institutional policies. All animal protocols were approved by the Institutional Animal Care and Use Committee (IACUC). The cells were diluted in a 1:1 mixture of PBS and BD MATRIGEL Matrix (BD Biosciences, Franklin Lakes, N.J., USA), and injected into the right flank of nude athymic mice (NCr-nu/+, NCr-nu/nu, 20-25 g each). The Matrigel-cell mixture was loaded into a 1-ml syringe fitted with a 26-gauge needle and kept on ice. The mixture was injected subcutaneously in the right flank region of the mouse. Flank tumors were grown for 2 to 3 weeks. Each flank was implanted with 1.4-2×10^6 cells. To correlate tumor position with GFP fluorescence, mice were imaged using the Perkin-Elmer MAESTRO FLEX In vivo Imaging System. For in vivo analyses, the mice were anesthetized with inhaled isoflurane/oxygen and imaged. For ex vivo analyses, mice were sacrificed by decapitation. […]
(§2) Nude mice with heterotopic (flank) tumors were typically imaged 3 to 6 weeks following tumor initiation. […] Average radiant intensity units, calculated by the LivingImage software, were obtained for each ROI. […]

[2] = test system: heterotopic xenograft flank U87 tumor implants overexpressing PTPmu; assay: In vivo fluorescence imaging of heterotopic xenograft U87 flank tumors overexpressing PTPmu; settings: mice with U87 flank tumors overexpressing PTPmu; FIG. 2
Experimental: as §1, §2

Substance	in vivo average radiant efficiency [1]	in vivo average radiant efficiency [2]
Peptide 2: SBK linked to a fluorophore with a polyglycine peptide spacer (GEGDDFNWEQVNTLTKPTSD; also: fluorophore linked via polyglycine spacer, not defined)	increased average radiant efficiency compared to the first agent, without a spacer, and the control agent	
Peptide 3: SBK linked to a fluorophore with a glycine/serine spacer (GEGDDFNWEQVNTLTKPTSD; also: fluorophore linked via glycine/serine spacer, not defined)	increased average radiant efficiency compared to the second agent	increased average radiant efficiency compared to the second agent
